Where “and” joins values, the source holds several entries; their conditions need not be identical. Equal values may be shown once.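 Cultured in 96-well plates, cells were exposed to test compound for 48 hours across five concentrations. The concentration for 50% growth inhibition is given as GI50. Definition used: TGI = concentration required for complete inhibition of growth.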
Assays:
Test in all cases: DTP human tumour cell line panel, 48 h
RPMI-8226 leukemia = test system: RPMI-8226 leukemia
786-0 renal = test system: 786-0 renal
OVCAR-8 ovarian = test system: OVCAR-8 ovarian
MALME-3M melanoma = test system: MALME-3M melanoma
DU-145 prostate = test system: DU-145 prostate
A549 NSCLC = test system: A549 NSCLC
U251 CNS = test system: U251 CNS
CCRF-CEM leukemia = test system: CCRF-CEM leukemia
MDA-MB-231 breast = test system: MDA-MB-231 breast
MCF7 breast = test system: MCF7 breast

| Compound | GI50 (RPMI-8226 leukemia) | TGI (RPMI-8226 leukemia) | GI50 (786-0 renal) | TGI (786-0 renal) | GI50 (OVCAR-8 ovarian) | TGI (OVCAR-8 ovarian) | GI50 (MALME-3M melanoma) | TGI (MALME-3M melanoma) | GI50 (DU-145 prostate) | TGI (DU-145 prostate) | GI50 (A549 NSCLC) | TGI (A549 NSCLC) | GI50 (U251 CNS) | TGI (U251 CNS) | GI50 (CCRF-CEM leukemia) | TGI (CCRF-CEM leukemia) | GI50 (MDA-MB-231 breast) | TGI (MDA-MB-231 breast) | GI50 (MCF7 breast) | TGI (MCF7 breast) |
| --- | --- | --- | --- | --- | --- | --- | --- | --- | --- | --- | --- | --- | --- | --- | --- | --- | --- | --- | --- | --- |
| Cc1cc2nc3c4cc(N)ccc4n(CCN(C)C)c3nc2cc1C | 0.606 µM | 4.86 µM | 1.11 µM | 12.6 µM | 0.584 µM | 12.8 µM | 1.27 µM | 3.08 µM | 1.11 µM | 11.7 µM | 0.45 µM | 6.14 µM | 0.613 µM | 11.1 µM | 0.891 µM | 17.6 µM | 1.12 µM | 7.61 µM | 0.494 µM | 7.96 µM |
| CC1(C)N=C(N)N=C(N)N1c1ccc(OCCCCOc2ccc(S(=O)(=O)F)cc2)c(Cl)c1 | 0.116 µM | 12 µM | 0.355 µM | 18.9 µM | 0.348 µM | 17.4 µM | 2.38 µM | 37.7 µM | 0.194 µM | 16 µM | 0.0826 µM | 14.8 µM | 0.0506 µM | 13.6 µM | 0.0794 µM | 17.6 µM | 1.9 µM | 23.9 µM | 0.13 µM | 13 µM |
| C=C1C(=O)O[C@H]2[C@H]1CC/C(Cn1cc(-c3cc(C(F)(F)F)cc(C(F)(F)F)c3)nn1)=C\CC[C@@]1(C)O[C@@H]21 | 0.221 µM | 0.522 µM | 0.163 µM | 0.311 µM | 0.88 µM | 2.2 µM | 0.521 µM | 2.16 µM | 0.726 µM | 2.02 µM | 1.36 µM | 3.01 µM | 1.44 µM | 2.76 µM | 0.169 µM | 0.821 µM | 0.333 µM | 1.06 µM | 0.198 µM | 1.19 µM |
| NC(N)=N/N=C\c1cccc(OCc2ccccc2)c1 | 2.33 µM | 8.17 µM | 3.54 µM | 12.6 µM | 6.58 µM | 38.8 µM | 3.35 µM | 13.5 µM | 11.4 µM | 23.9 µM | 9.2 µM | 24.1 µM | 1.87 µM | 4.12 µM | 9.53 µM | 33.7 µM | 2.37 µM | 6.11 µM | 1.77 µM | 3.75 µM |
| Cc1ccccc1N=Nc1ccc(NC(=O)c2ccnn2C)c(C)c1 | 3.41 µM | > 100 µM | 18.8 µM | > 100 µM | 98.5 µM | > 100 µM | 14.5 µM | > 100 µM | > 100 µM | > 100 µM | 73.9 µM | > 100 µM | 24 µM | > 100 µM | 43.3 µM | > 100 µM | 20.2 µM | 78.2 µM | 17.8 µM | > 100 µM |
| CC1=C2C[C@H]3[C@@H](CC[C@@H]4CC(NS(C)(=O)=O)CC[C@@]43C)[C@@H]2CC[C@@]2(C1)O[C@@H]1C[C@H](C)CN[C@H]1[C@H]2C (stereo partly drawn) | 7.62 µM | 29.5 µM | 8.94 µM | 24.2 µM | 12 µM | 25.7 µM | 9.75 µM | 25.2 µM | 14.4 µM | 28 µM | 4.26 µM | 17.5 µM | 6.92 µM | 20.8 µM | 7.71 µM | 28.4 µM | 5.68 µM | 18.8 µM | 3.49 µM | 14.9 µM |
| O=C(/C=C/c1cccnc1)NCCCCC1CCCN(C(=O)c2ccccc2)C1 (stereo not drawn) | < 0.01 µM | > 100 µM | > 64.3 µM | > 100 µM | < 0.01 µM | > 100 µM | > 44.5 µM | > 100 µM | < 0.01 µM | > 100 µM | 0.0752 µM | > 100 µM | < 0.01 µM | > 100 µM | < 0.01 µM | > 100 µM | > 100 µM | > 100 µM | 37.5 µM | > 100 µM |
| CCOC(=O)N1CCc2cc(OC)c(OC)c3c2c1cc1cc(OC)c(OC)cc13 |  | 60.9 µM |  | > 100 µM |  | > 100 µM |  | 51.5 µM |  | > 100 µM |  | > 100 µM |  | 67.1 µM |  | > 58.3 µM |  | > 100 µM |  | 32.8 µM |
| O=c1c2ccccc2n(C[C@H]2CO2)c2ccccc12 | 1.94 µM | 6.55 µM | 2.75 µM | 8.17 µM | 1.26 µM | 5.35 µM | 1.65 µM | 3.19 µM | 1.35 µM | 5.85 µM | 2.45 µM | 7.28 µM | 1.82 µM | 7.3 µM | 0.771 µM | 21.7 µM | 2.07 µM | 5.24 µM | 0.39 µM | 2.98 µM |
| COC(=O)C1=C(C(=O)ON)C2C=CC1(C(Cc1ccccc1)Nc1ccccc1)O2 (stereo not drawn) | 2.33 µM | 6.51 µM | 1.76 µM | 3.26 µM | 2.75 µM | 8.71 µM | 1.76 µM | 3.33 µM | 2.01 µM | 4.18 µM | 15.2 µM | 29.4 µM | 14.2 µM | 27.2 µM | 2.23 µM | 16.9 µM | 1.87 µM | 3.59 µM | 2.42 µM | 6.59 µM |
| COc1cc2c3c(n(CCCN)c(=O)c2cc1OC)-c1cc2c(cc1/C3=C\CCN)OCO2 | 2.01 µM | > 40.3 µM | 2.05 µM | 9.34 µM | 1.99 µM | 13.1 µM | 1.1 µM | 4.26 µM | 2.52 µM | 12.7 µM | 3.19 µM | > 30.3 µM | 1.33 µM | 11 µM | 0.196 µM | 36.5 µM | 2.5 µM | 11.2 µM | 0.692 µM |  |
| Ic1ccccc1-c1ccccc1 | 62.7 µM | > 100 µM | > 100 µM | > 100 µM | > 100 µM | > 100 µM | 96.2 µM | > 100 µM | > 100 µM | > 100 µM | > 100 µM | > 100 µM | > 100 µM | > 100 µM | 41.5 µM | > 100 µM | > 100 µM | > 100 µM | > 100 µM | > 100 µM |
| Nc1c(Br)cc(Br)c2c1[nH]c(=O)c1ccccc12 | 9.89 µM | > 100 µM | 2.72 µM | 7.83 µM | 4.04 µM | 26.5 µM | 3.43 µM | 10.1 µM | 23.6 µM | > 100 µM | 6.7 µM | > 100 µM | 5.08 µM | 26.7 µM | 14 µM | > 81.8 µM | 2.36 µM | 61.1 µM | 0.577 µM | > 100 µM |
| Cc1c(-c2c(-c3ccc(F)o3)sc3ncnc(O[C@H](Cc4ccccc4OCc4ccnn4CC(F)(F)F)C(=O)O)c23)ccc(OCCN2CCN(C)CC2)c1Cl | < 0.0147 µM | 0.261 µM | 3.97 µM | 8.33 µM | 5.82 µM | 15.5 µM | 3.37 µM | 7.52 µM | 2.33 µM | 5.36 µM | 13.4 µM | 26.9 µM | 4.59 µM | 10.7 µM | 0.318 µM | 9.49 µM | 3.8 µM | 7.84 µM | 0.375 µM | 4.61 µM |
| CCOC(=O)c1[nH]c(Br)c(-c2ccc(Br)cc2)c1Br | 0.357 µM | 3.92 µM | 0.535 µM | 1.92 µM and 2.72 µM |  | 2.65 µM and 2.42 µM | 0.46 µM | 15.8 µM | 2.19 µM | 55.8 µM | 8.15 µM | 29.8 µM | 0.394 µM | 3.55 µM and 1.93 µM | 0.278 µM | 1.11 µM | 0.782 µM | 7.07 µM | 0.895 µM | > 100 µM |

— PubChem BioAssay (NCI)
